Experimental data taken from patent US8318635B2, “Phytotoxicity controlling agent for upland farming and phytotoxicity controlling method using the same” (priority 2006, dated 2012).
Counter-ions that a name gives are not always drawn. Like-named read-outs stand apart in the source and are kept apart here.

Assays:
[1] = system: wheat (Brigadier); experiment: Visual growth study, phytotoxicity index, chemicals scattered 14 days after sowing; format: in vivo
Method: (§1) These containers were each kept standing on a water vat filled with a water pool from which water was supplied through the opening in the bottom. […] After 8 days from the chemical treatment and after 14 days from the chemical treatment, visual growth studies were conducted for sweet corn, sorghum and adzuki bean and for wheat, barley, dry-paddy rice, soybean, rapeseed and beet, respectively and the results are shown in Table 2 and Table 3.

[2] = system: soybean (Fukuyutaka); experiment: Visual growth study, phytotoxicity index, chemicals scattered on the next day after sowing
Method: (§2) A wettable powder containing 10% of 4-(tert-butyl)benzoic acid was prepared by blending pulverization of 10 parts of 4-(tert-butyl)benzoic acid, 2 parts of a sodium salt of naphthalenesulfonic acid-formalin condensation product, 2 parts of a polyoxyethylene alkyl ether, 30 parts of diatomaceous earth and 56 parts of clay by using a high-speed air-jet pulverizer.
(§3) These containers were each kept standing in a water vat and water supply for pooling was introduced through the hole opening at the bottom of the water vat.
(§4) For comparison, on the other hand, evaluation was made by conducting growth studies by growing sweet corn, wheat, dry-paddy rice, sorghum, soybean, adzuki bean and rapeseed under the same conditions as in the Examples excepting for the omission of scattering of 4-(tert-butyl)benzoic acid.

[3] = system: soybean (Fukuyutaka); experiment: Visual growth study, phytotoxicity index, chemicals scattered 14 days after sowing; format: in vivo; conditions: true leaf extraction stage, treated 14 days after sowing, 14 days after treatment, 0-100 scale, 4-(tert-butyl)benzoic acid 1000 g ai/ha in Examples, 0 in Comparative Examples, herbicide dose per label
Method: as §1

[4] = system: wheat (Brigadier); conditions: in vivo
Method: as §2, §3, §4

[5] = system: dry-paddy rice (Labell); experiment: Visual growth study, phytotoxicity index, chemicals scattered on the next day after sowing; format: in vivo; conditions: treated next day after sowing, 26 days after treatment, 0 = no growth inhibition, 100 = full dying, 4-(tert-butyl)benzoic acid 1000 g ai/ha in Examples, 0 in Comparative Examples, herbicide dose per label
Method: as §2, §3, §4

[6] = system: sweet corn (Delicious 100); experiment: Visual growth study, phytotoxicity index, chemicals scattered 14 days after sowing; format: in vivo; conditions: 1.5 leaves stage, treated 14 days after sowing, 8 days after treatment, 0-100 scale, 4-(tert-butyl)benzoic acid 1000 g ai/ha in Examples, 0 in Comparative Examples, herbicide dose per label
Method: as §1

[7] = system: beet (VIGIL); experiment: as above; format: in vivo; conditions: true leaf extraction stage, treated 14 days after sowing, 14 days after treatment, 0-100 scale, 4-(tert-butyl)benzoic acid 1000 g ai/ha in Examples, 0 in Comparative Examples, herbicide dose per label
Method: as §1

[8] = system: sorghum (Funk's Hybrid); experiment: Visual growth study, phytotoxicity index, chemicals scattered on the next day after sowing; conditions: treated next day after sowing, 11 days after treatment, 0 = no growth inhibition, 100 = full dying, 4-(tert-butyl)benzoic acid 1000 g ai/ha in Examples, 0 in Comparative Examples, herbicide dose per label
Method: as §2, §3, §4

[9] = system: sweet corn (Delicious 100); experiment: as above; conditions: treated next day after sowing, 26 days after treatment, 0 = no growth inhibition, 100 = full dying, 4-(tert-butyl)benzoic acid 1000 g ai/ha in Examples, 0 in Comparative Examples, herbicide dose per label
Method: as §2, §3, §4

[10] = system: rapeseed; experiment: Visual growth study, phytotoxicity index, chemicals scattered 14 days after sowing; format: in vivo
Method: as §1

[11] = system: adzuki bean (Dainagon); experiment: as above; format: in vivo
Method: as §1

[12] = system: barley (Minori Rokujo); experiment: as above; conditions: in vivo
Method: as §1

[13] = system: dry-paddy rice (Labell); experiment: as above; format: in vivo; conditions: 0.8 leaves stage, treated 14 days after sowing, 14 days after treatment, 0-100 scale, 4-(tert-butyl)benzoic acid 1000 g ai/ha in Examples, 0 in Comparative Examples, herbicide dose per label
Method: as §1

[14] = wheat, 2 leaves stage, treated 14 days after sowing, 14 days after treatment, 0-100 scale, 4-(tert-butyl)benzoic acid 1000 g ai/ha in Examples, 0 in Comparative Examples, herbicide dose per label

CS(=O)(=O)c1ccc(C(=O)C2C(=O)CCCC2=O)c([N+](=O)[O-])c1 [compound 21, Mesotrione]
Phytotoxicity index [1, 14]: 40

COC[C@H](C)N(C(=O)CCl)c1c(C)csc1C [compound 10, Dimethenamide-P]
Phytotoxicity index ([2]; soybean, treated next day after sowing, 26 days after treatment, 0 = no growth inhibition, 100 = full dying, 4-(tert-butyl)benzoic acid 1000 g ai/ha in Examples, 0 in Comparative Examples, herbicide dose per label): 20

O=C(Nc1ccc(F)cc1F)c1cccnc1Oc1cccc(C(F)(F)F)c1 [compound 26, Diflufenican]
Phytotoxicity index [3]: 30

Cc1ccn2nc(S(=O)(=O)Nc3c(F)cccc3F)nc2n1 [compound 4, Flumetsulam]
Phytotoxicity index [4]: 13

CCNc1nc(Cl)nc(NC(C)C)n1 [compound 7, Atrazine]
Phytotoxicity index [5]: 35

CS(=O)(=O)c1ccc(C(=O)C2C(=O)CCCC2=O)c([N+](=O)[O-])c1 [compound 16, Mesotrione]
Phytotoxicity index [6]: 13

COC[C@H](C)N(C(=O)CCl)c1c(C)csc1C [compound 31, Dimethenamide-P]
Phytotoxicity index [7]: 35

CC(C)C1(C)N=C(c2nc3ccccc3cc2C(=O)O)NC1=O (stereo not shown) [compound 8, Imazaquin ammonium salt]
Phytotoxicity index [8]: 45

COC[C@H](C)N(C(=O)CCl)c1c(C)csc1C [compound 15, Dimethenamide-P]
Phytotoxicity index [6]: 20

O=C(Nc1ccc(F)cc1F)c1cccnc1Oc1cccc(C(F)(F)F)c1 [compound 22, Diflufenican]
Phytotoxicity index [1, 14]: 15

CCNc1nc(Cl)nc(NC(C)C)n1 [compound 3, Atrazine]
Phytotoxicity index [9]: 15

COC[C@H](C)N(C(=O)CCl)c1c(C)csc1C [compound 29, Dimethenamide-P]
Phytotoxicity index ([10]; rapeseed, two paired leaves extraction stage, treated 14 days after sowing, 14 days after treatment, 0-100 scale, 4-(tert-butyl)benzoic acid 1000 g ai/ha in Examples, 0 in Comparative Examples, herbicide dose per label): 10

Cn1nc(C(F)(F)F)c(CS(=O)(=O)C2=NOC(C)(C)C2)c1OC(F)F [compound 27]
Phytotoxicity index ([11]; in vivo): 25

O=C(Nc1ccc(F)cc1F)c1cccnc1Oc1cccc(C(F)(F)F)c1 [compound 28, Diflufenican]
Phytotoxicity index ([11]; adzuki bean, true leaf extraction stage, treated 14 days after sowing, 8 days after treatment, 0-100 scale, 4-(tert-butyl)benzoic acid 1000 g ai/ha in Examples, 0 in Comparative Examples, herbicide dose per label): 35

O=C(Nc1ccc(F)cc1F)c1cccnc1Oc1cccc(C(F)(F)F)c1 [compound 17, Diflufenican]
Phytotoxicity index [6]: 35

Cn1nc(C(F)(F)F)c(CS(=O)(=O)C2=NOC(C)(C)C2)c1OC(F)F [compound 23]
Phytotoxicity index [12]: 18

Cn1nc(C(F)(F)F)c(CS(=O)(=O)C2=NOC(C)(C)C2)c1OC(F)F [compound 30]
Phytotoxicity index ([10]; in vivo): 40

Cn1nc(C(F)(F)F)c(CS(=O)(=O)C2=NOC(C)(C)C2)c1OC(F)F [compound 20]
Phytotoxicity index ([1]; in vivo): 20

Cn1nc(C(F)(F)F)c(CS(=O)(=O)C2=NOC(C)(C)C2)c1OC(F)F [compound 11]
Phytotoxicity index ([2]; in vivo): 20

COc1cc(OC)nc(Oc2cccc(Oc3nc(OC)cc(OC)n3)c2C(=O)O)n1 [compound 19, Bispyribac-sodium]
Phytotoxicity index [1, 14]: 35

CCOC(=O)[C@@H](C)Oc1ccc(Oc2nc3ccc(Cl)cc3o2)cc1 [compound 18, Fenoxaprop-P-ethyl]
Phytotoxicity index [1, 14]: 40

COc1cc(OC)nc(Oc2cccc(Oc3nc(OC)cc(OC)n3)c2C(=O)O)n1 [compound 14, Bispyribac-sodium]
Phytotoxicity index [6]: 45

COc1cc(OC)nc(Oc2cccc(Oc3nc(OC)cc(OC)n3)c2C(=O)O)n1 [compound 24, Bispyribac-sodium]
Phytotoxicity index [13]: 18

COC[C@H](C)N(C(=O)CCl)c1c(C)csc1C [compound 25, Dimethenamide-P]
Phytotoxicity index [3]: 15

COC[C@H](C)N(C(=O)CCl)c1c(C)csc1C [compound 2, Dimethenamide-P]
Phytotoxicity index [9]: 33
